Data as given in patent US10077261B2, “Imidazolin-5-one derivative useful as FASN inhibitors for the treatment of cancer” (Janssen Pharmaceutica NV, priority 2012, dated 2018).
Read-outs that look alike come from different tables or passages of the source.

Biological target: T1, hFASN enzyme (full length) (Homo sapiens, UniProt P49327)
T1 construct: 10 μL hFASN enzyme (full length, 300 ng, purified in house); made in house
Assay: Fatty Acid Synthase (FASN) inhibition scintillation proximity assay
Type: biochemical
Settings: for IC50: read-out: Human FASN pIC50 (converted)
Summary of the method: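 Read-out relies on hydrophobic ³H-palmitate product, formed from ³H-acetyl-CoA and malonyl-CoA, binding streptavidin imaging beads, measured at 610±20 nm after at least 24 h. Full-length enzyme (300 ng) in phosphate buffer pH 7.5 with DTT; eight compound concentrations, 0.01–30 μM.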

[1] = read-out: Human FASN % inhibition @ 10 μM, 10 μM test compound

T1 sequence (P49327 whole entry): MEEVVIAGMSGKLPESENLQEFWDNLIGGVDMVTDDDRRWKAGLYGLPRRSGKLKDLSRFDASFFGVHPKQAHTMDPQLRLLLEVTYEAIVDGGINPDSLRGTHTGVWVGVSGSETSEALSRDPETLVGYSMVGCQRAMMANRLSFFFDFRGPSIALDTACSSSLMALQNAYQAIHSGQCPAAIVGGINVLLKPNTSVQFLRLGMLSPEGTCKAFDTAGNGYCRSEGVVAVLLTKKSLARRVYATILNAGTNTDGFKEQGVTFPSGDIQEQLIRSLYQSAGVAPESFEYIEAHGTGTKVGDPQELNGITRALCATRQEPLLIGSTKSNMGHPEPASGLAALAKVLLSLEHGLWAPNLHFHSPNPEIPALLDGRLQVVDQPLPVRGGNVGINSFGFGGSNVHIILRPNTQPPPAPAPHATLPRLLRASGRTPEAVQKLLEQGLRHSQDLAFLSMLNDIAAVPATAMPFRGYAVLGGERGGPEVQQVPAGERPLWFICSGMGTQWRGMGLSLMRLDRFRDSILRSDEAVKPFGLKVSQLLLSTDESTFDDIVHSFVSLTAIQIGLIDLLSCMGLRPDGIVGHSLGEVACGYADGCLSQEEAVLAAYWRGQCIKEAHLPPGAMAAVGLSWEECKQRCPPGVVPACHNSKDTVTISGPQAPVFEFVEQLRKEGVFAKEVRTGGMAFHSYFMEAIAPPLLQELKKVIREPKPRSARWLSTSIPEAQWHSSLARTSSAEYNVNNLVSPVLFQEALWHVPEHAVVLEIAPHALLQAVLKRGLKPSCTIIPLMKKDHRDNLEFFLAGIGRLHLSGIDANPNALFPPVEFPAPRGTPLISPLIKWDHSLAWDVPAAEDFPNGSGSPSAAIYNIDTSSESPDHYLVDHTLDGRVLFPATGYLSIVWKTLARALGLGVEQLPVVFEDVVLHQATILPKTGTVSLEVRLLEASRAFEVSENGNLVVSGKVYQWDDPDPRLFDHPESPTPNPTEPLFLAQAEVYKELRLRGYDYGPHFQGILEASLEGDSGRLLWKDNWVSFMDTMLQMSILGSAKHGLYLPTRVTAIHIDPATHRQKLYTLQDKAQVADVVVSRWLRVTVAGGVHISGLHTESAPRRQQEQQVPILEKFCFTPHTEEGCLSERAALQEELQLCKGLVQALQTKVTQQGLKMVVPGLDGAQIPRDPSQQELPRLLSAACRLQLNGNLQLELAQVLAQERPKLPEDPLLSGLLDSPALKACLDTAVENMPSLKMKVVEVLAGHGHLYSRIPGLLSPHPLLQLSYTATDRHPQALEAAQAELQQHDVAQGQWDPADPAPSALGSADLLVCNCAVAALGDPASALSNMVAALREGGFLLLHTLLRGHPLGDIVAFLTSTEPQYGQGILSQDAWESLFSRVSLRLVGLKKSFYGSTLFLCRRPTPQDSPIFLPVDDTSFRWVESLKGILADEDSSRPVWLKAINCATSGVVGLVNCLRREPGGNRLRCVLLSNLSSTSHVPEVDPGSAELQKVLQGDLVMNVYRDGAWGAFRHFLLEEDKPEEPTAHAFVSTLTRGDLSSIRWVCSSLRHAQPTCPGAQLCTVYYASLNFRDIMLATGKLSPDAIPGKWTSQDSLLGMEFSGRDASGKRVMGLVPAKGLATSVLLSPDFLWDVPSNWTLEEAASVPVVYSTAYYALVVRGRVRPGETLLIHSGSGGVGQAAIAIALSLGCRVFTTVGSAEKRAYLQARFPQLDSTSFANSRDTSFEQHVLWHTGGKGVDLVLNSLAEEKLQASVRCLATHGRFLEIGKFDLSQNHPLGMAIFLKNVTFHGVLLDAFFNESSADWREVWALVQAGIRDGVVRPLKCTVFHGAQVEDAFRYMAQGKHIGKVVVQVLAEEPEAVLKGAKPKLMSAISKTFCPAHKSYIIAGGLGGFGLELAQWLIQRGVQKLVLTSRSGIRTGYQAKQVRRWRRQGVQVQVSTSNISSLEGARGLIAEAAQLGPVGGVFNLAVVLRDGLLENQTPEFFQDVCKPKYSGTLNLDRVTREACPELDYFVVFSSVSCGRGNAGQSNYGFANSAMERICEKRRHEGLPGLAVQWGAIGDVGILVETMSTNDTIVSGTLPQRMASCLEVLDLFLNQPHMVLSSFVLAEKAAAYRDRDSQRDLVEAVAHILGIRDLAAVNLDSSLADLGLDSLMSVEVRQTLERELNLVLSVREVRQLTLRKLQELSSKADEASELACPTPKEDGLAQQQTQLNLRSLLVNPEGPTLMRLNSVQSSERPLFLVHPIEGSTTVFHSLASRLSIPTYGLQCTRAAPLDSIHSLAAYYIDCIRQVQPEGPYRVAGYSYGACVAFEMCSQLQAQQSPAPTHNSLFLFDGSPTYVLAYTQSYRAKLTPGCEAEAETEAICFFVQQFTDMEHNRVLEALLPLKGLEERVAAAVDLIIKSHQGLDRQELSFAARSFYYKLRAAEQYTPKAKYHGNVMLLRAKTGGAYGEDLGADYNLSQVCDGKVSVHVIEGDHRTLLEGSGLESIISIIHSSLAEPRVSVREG

inhibition at 10 µM [1] [%]	IC50 [µM]	SMILES	inhibition at 10 µM (read-out: Human FASN % inhibition @ 10 μM) [%]
64.4	~4.9	O=C(C1CC1)N1CCC(CN2C(=O)C3(CC3)N=C2c2ccc(-c3ccc4ccncc4c3)cc2)CC1 [compound 25, 6-{[1-(Cyclopropylcarbonyl)piperidin-4-yl]methyl}-5-(4-isoquinolin-7-ylphenyl)-4,6-diazaspiro[2.4]hept-4-en-7-one]	–
56	6.61	Cn1ncc2cc(-c3ccc(C4=NC5(CCOC5)C(=O)N4CC4CN(C(=O)C5CC5)C4)cc3)ccc21 (stereo not shown) [compound 722, 3-{[1-(Cyclopropylcarbonyl)azetidin-3-yl]methyl}-2-[4-(1-methyl-1H-indazol-5-yl)phenyl]-7-oxa-1,3-diazaspiro[4.4]non-1-en-4-one]	–
65	~2.34	Cn1ncc2cc(-c3ccc(C4=NC5(CCOCC5)C(=O)N4CC4CN(C(=O)C5CC5)C4)cc3)ccc21 [compound 706, 3-{[1-(Cyclopropylcarbonyl)azetidin-3-yl]methyl}-2-[4-(1-methyl-1H-indazol-5-yl)phenyl]-8-oxa-1,3-diazaspiro[4.5]dec-1-en-4-one]	–
47	4.17	Cn1ncc2cc(-c3ccc(C4=NC5(CCOC5)C(=O)N4CC4CN(C(=O)[C@H]5CCCO5)C4)cc3)ccc21 (stereo partly drawn) [compound 724, 2-[4-(1-Methyl-1H-indazol-5-yl)phenyl]-3-({1-[(2R)-tetrahydro-furan-2-ylcarbonyl]azetidin-3-yl}methyl)-7-oxa-1,3-diazaspiro[4.4]non-1-en-4-one]	–
46	8.91	COC(=O)N1CC2(C1)N=C(c1ccc(-c3ccc4c(cnn4C)c3)cc1)N(C[C@@H]1CCN(C(=O)N3CCCC3)C1)C2=O [compound 740, Methyl 6-[4-(1-methyl-1H-indazol-5-yl)phenyl]-8-oxo-7-{[(3S)-1-(pyrrolidin-1-ylcarbonyl)pyrrolidin-3-yl]methyl}-2,5,7-triazaspiro[3.4]oct-5-ene-2-carboxylate]	–
58	5.75	Cn1ncc2cc(-c3ccc(C4=NC5(CC5)C(=O)N4CC4CN(C(=O)C5CC5)C4)cc3)cnc21 [compound 503, 6-{[1-(Cyclopropylcarbonyl)azetidin-3-yl]methyl}-5-[4-(1-methyl-1H-pyrazolo[3,4-b]pyridin-5-yl)phenyl]-4,6-diazaspiro[2.4]hept-4-en-7-one]	–
84	1.07	O=C(C1CC1)N1CCC[C@@H](CN2C(=O)C3(CC3)N=C2c2ccc(-c3ccc4sccc4c3)cc2)C1 [compound 394, 5-[4-(1-Benzothiophen-5-yl)phenyl]-6-{[(3R)-1-(cyclopropylcarbonyl)piperidin-3-yl]methyl}-4,6-diazaspiro[2.4]hept-4-en-7-one]	–
109	0.269	CN(C)CC(=O)N1CCC2(CC1)N=C(c1ccc(-c3ccc4cnccc4c3)cc1)N(CC1CN(C(=O)C3CC3)C1)C2=O [compound 154, 3-{[1-(Cyclopropylcarbonyl)azetidin-3-yl]methyl}-8-(N,N-dimethylglycyl)-2-(4-isoquinolin-6-ylphenyl)-1,3,8-triazaspiro[4.5]dec-1-en-4-one]	–
110	0.251	CN(C)CC(=O)N1CCC2(CC1)N=C(c1ccc(-c3ccc4c(cnn4C)c3)cc1)N(C[C@@H]1CCN(C(=O)C3CC3)C1)C2=O [compound 141, 3-{[(3R)-1-(Cyclopropylcarbonyl)pyrrolidin-3-yl]methyl}-8-(N,N-dimethylglycyl)-2-[4-(1-methyl-1H-indazol-5-yl)phenyl]-1,3,8-triazaspiro[4.5]dec-1-en-4-one]	–

The remaining lines, values behind:

SMILES	inhibition at 10 µM [1] [%]	IC50 [µM]	inhibition at 10 µM (read-out: Human FASN % inhibition @ 10 μM) [%]
O=C(C1CC1)N1CC[C@@H](CN2C(=O)C3(CC3)N=C2c2cnc(-c3ccc4occc4c3)cn2)C1 [compound 439, 5-[5-(1-Benzofuran-5-yl)pyrazin-2-yl]-6-{[(3R)-1-(cyclopropylcarbonyl)pyrrolidin-3-yl]methyl}-4,6-diazaspiro[2.4]hept-4-en-7-one]	48	9.55	–
COC(=O)N1CC(CN2C(=O)C3(CCOCC3)N=C2c2ccc(-c3ccc4occc4c3)cc2)C1 [compound 928]	10	> 10	–
O=C(N1CCCC1)N1CC(CN2C(=O)C3(CCOC3)N=C2c2ccc(-c3ccc4occc4c3)cc2)C1 (stereo not shown) [compound 721, 2-[4-(1-Benzofuran-5-yl)phenyl]-3-{[1-(pyrrolidin-1-ylcarbonyl)azetidin-3-yl]methyl}-7-oxa-1,3-diazaspiro[4.4]non-1-en-4-one]	63	5.75	–
O=C(CN1CC[C@@H](CN2C(=O)C3(CCN(Cc4ccccc4)CC3)N=C2c2ccc(-c3ccc4occc4c3)cc2)C1)C1CC1 [compound 96, 2-[4-(1-Benzofuran-5-yl)phenyl]-8-benzyl-3-{[(3R)-1-(2-cyclopropyl-2-oxoethyl)pyrrolidin-3-yl]methyl}-1,3,8-triazaspiro[4.5]dec-1-en-4-one]	71.2	5.01	–
CC(O)C(=O)N1CC(CN2C(=O)C3(CCOCC3)N=C2c2ccc(-c3ccc4occc4c3)cc2)C1 (stereo not shown) [compound 703, 2-[4-(1-Benzofuran-5-yl)phenyl]-3-{[1-(2-hydroxypropanoyl)azetidin-3-yl]methyl}-8-oxa-1,3-diazaspiro[4.5]dec-1-en-4-one]	61	4.47	–
Cn1cc(-c2ccc(-c3ccc(C4=NC5(CCOC5)C(=O)N4CC4CN(C(=O)[C@H]5CCCO5)C4)cc3)cc2)cn1 (stereo partly drawn) [compound 712, 2-[4′-(1-Methyl-1H-pyrazol-4-yl)biphenyl-4-yl]-3-({1-[(2R)-tetrahydro-furan-2-ylcarbonyl]azetidin-3-yl}methyl)-7-oxa-1,3-diazaspiro[4.4]non-1-en-4-one]	69	2.45	–
O=C(C1CC1)N1CCC(CN2C(=O)C3(CC3)N=C2c2ccc(-c3ccc(F)cc3)cc2)CC1 [compound 110, 6-{[1-(Cyclopropylcarbonyl)piperidin-4-yl]methyl}-5-(4′-fluorobiphenyl-4-yl)-diazaspiro[2.4]hept-4-en-7-one]	–	> 10	32.6
O=C(C1CC1)N1CC(CN2C(=O)C3(CCN(C(=O)C(F)(F)F)CC3)N=C2c2ccc(-c3ccc4c(ccn4C(=O)C(F)(F)F)c3)cc2)C1 [compound 952, 3-((1-(cyclopropanecarbonyl)azetidin-3-yl)methyl)-8-(2,2,2-trifluoroacetyl)-2-(4-(1-(2,2,2-trifluoroacetyl)-1H-indol-5-yl)phenyl)-1,3,8-triazaspiro[4.5]dec-1-en-4-one]	45	> 10	–
CS(=O)(=O)N1CC(CN2C(=O)C3(CCOCC3)N=C2c2ccc(-c3ccc4occc4c3)cc2)C1 [compound 888, 2-(4-(benzofuran-5-yl)phenyl)-3-((1-(methylsulfonyl)azetidin-3-yl)methyl)-8-oxa-1,3-diazaspiro[4.5]dec-1-en-4-one]	1	> 10	–
Cn1cc(-c2ccc(-c3ccc(C4=NC5(CCN(CCO)CC5)C(=O)N4CC4CN(C(=O)C5CC5)C4)cc3)cc2)cn1 [compound 772, 3-{[1-(Cyclopropylcarbonyl)azetidin-3-yl]methyl}-8-(2-hydroxyethyl)-2-[4′-(1-methyl-1H-pyrazol-4-yl)biphenyl-4-yl]-1,3,8-triazaspiro[4.5]dec-1-en-4-one]	64	3.98	–
N#CC1(C(=O)N2CC[C@@H](CN3C(=O)C4(CCCC4)N=C3c3ccc(-c4ccc5occc5c4)cc3)C2)CC1 [compound 192, 1-{[(3R)-3-({2-[4-(1-Benzofuran-5-yl)phenyl]-4-oxo-1,3-diazaspiro[4.4]non-1-en-3-yl}methyl)pyrrolidin-1-yl]carbonyl}cyclopropancarbonitrile]	94.3	0.589	–
Cc1cc2cc(-c3ccc(C4=NC5(CC5)C(=O)N4CC4CN(C(=O)C5CC5)C4)cc3F)ccc2s1 [compound 433, 6-{[1-(Cyclopropylcarbonyl)azetidin-3-yl]methyl}-5-[3-fluoro-4-(2-methyl-1-benzothiophen-5-yl)phenyl]-4,6-diazaspiro[2.4]hept-4-en-7-one]	72	1.82	–
Cc1cccc(-c2ccc(C3=NC4(CC4)C(=O)N3CC3CCN(C(=O)C4CC4)CC3)cc2)c1 [compound 111, 6-{[1-(Cyclopropylcarbonyl)piperidin-4-yl]methyl}-5-(3′-methylbiphenyl-4-yl)-4,6-diazaspiro[2.4]hept-4-en-7-one]	62.2	4.37	–
COC(=O)N1CC(CN2C(=O)C3(CCOCC3)N=C2c2ccc(-c3ccc(-c4cnn(C)c4)cc3)cc2)C1 [compound 936, methyl 3-((2-(4′-(1-methyl-1H-pyrazol-4-yl)-[1,1′-biphenyl]-4-yl)-4-oxo-8-oxa-1,3-diazaspiro[4.5]dec-1-en-3-yl)methyl)azetidine-1-carboxylate]	7	> 10	–
O=C(C1CC1)N1CC[C@@H](CN2C(=O)C3(CC3)N=C2c2ccc(-c3cncc(Cl)c3)cc2)C1 [compound 802, (R)-5-(4-(5-chlorppyridin-3-yl)phenyl)-6-((1-(cyclopropanecarbonyl)pyrrolidin-3-yl)methyl)-4,6-diazaspiro[2.4]hept-4-en-7-one]	24	> 10	–
O=C(c1nccs1)N1CC(CN2C(=O)C3(CCOC3)N=C2c2ccc(-c3ccc4cccnc4c3)cc2)C1 (stereo not shown) [compound 930, 2-(4-(quinolin-7-yl)phenyl)-3-((1-(thiazole-2-carbonyl)azetidin-3-yl)methyl)-7-oxa-1,3-diazaspiro[4.4]non-1-en-4-one]	-14	> 10	–
O=C(C1CC1)N1CC[C@@H](CN2C(=O)C3(CC3)N=C2c2cnc(-c3ccc4occc4c3)nc2)C1 [compound 458, 5-[2-(1-Benzofuran-5-yl)pyrimidin-5-yl]-6-{[(3R)-1-(cyclopropylcarbonyl)pyrrolidin-3-yl]methyl}0-4,6-diazaspiro[2.4]hept-4-en-7-one]	48	8.13	–
